Test results: publication PMC10387993, “New pyrimidine-N-β-D-glucosides: synthesis, biological evaluation, and molecular docking investigations” (Turkish Journal of Chemistry, 2023)
Values after ≈ are worked out from the molar mass of the structure shown. Read-outs that look alike come from different tables or passages of the source.

What was measured:
Type in all cases: cell-based
C6 (Rat brain glioma) = assay: cells; conditions: Rattus norvegicus; for LC50 (concentration giving 50% net cell loss relative to time zero): read-out: LC50; for GI50 / IC50 / IC (total growth inhibition): C6, MTT; for IC50: read-out: IC50; for IC (total growth inhibition): read-out: TGI
Method in brief: (§1)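 Seed ~1 × 10^4 cells/well; final 200 μL. Add MTT in phenol-red-free RPMI 1640, 4 h. Solubilise formazan in DMSO + Sorenson's buffer, 30 min RT. Read 560/690 nm. ≥3 repeats.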

Hep3B = assay: cells; conditions: Homo sapiens; for GI50 / IC50 / IC (total growth inhibition): MTT; for IC50: read-out: IC50; for IC (total growth inhibition): read-out: TGI; for LC50 (concentration causing 50% net cell loss relative to time zero): read-out: LC50
Method in brief: as §1

in vitro = conditions: human, LC50
Method in brief: as §1

normal FL cells = assay: cells; conditions: FL normal cells, MTT; for IC50: read-out: IC50; for IC (total growth inhibition): read-out: TGI
Method in brief: as §1

[1] = LDH cytotoxic activity assay, HeLa; conditions: human, HeLa cells
Method in brief: (§2)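 Cells grown in DMEM or RPMI 1640 with 10% FBS were seeded at about 5 × 10^3 per well in triplicate. They were exposed to 25, 50, 75 and 100 μg/mL compound for 24 h at 37 °C, 5% CO2, and LDH release was measured by absorbance at 492–630 nm.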

[2] = LDH cytotoxic activity assay, HT29; conditions: human, HT29 cells; for cytotoxicity at 24 h, 25 μg/mL: HT29, 25 μg/mL; for cytotoxicity at 24 h, 50 μg/mL: HT29, 50 μg/mL; for cytotoxicity at 24 h, 75 μg/mL: HT29, 75 μg/mL; for cytotoxicity at 24 h, 100 μg/mL: HT29, 100 μg/mL
Method in brief: as §2

[3] = tested on: S. aureus MRSA ATCC 46300; assay: Microdilution MIC assay; conditions: Staphylococcus aureus; S. aureus MRSA ATCC 46300, 24 h at 35 °C; read-out: MIC
Method in brief: (§3)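 Read-out is visual: absence of turbidity after 24 h at 35 °C defines the MIC, the lowest such concentration in a microwell dilution series.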

[4] = tested on: S. aureus MSSA ATCC 29213; assay: Microdilution MIC assay; conditions: Staphylococcus aureus, 24 h, S. aureus MSSA ATCC 29213, 24 h at 35 °C; read-out: MIC
Method in brief: as §3

E. faecalis ATCC 29212 = assay: Microdilution MIC assay; conditions: E. faecalis ATCC 29212, 24 h at 35 °C
Method in brief: as §3

S. aureus ATCC 25923 = assay: Microdilution MIC assay; conditions: Staphylococcus aureus, ATCC25923, 24 h, S. aureus ATCC 25923, 24 h at 35 °C; read-out: MIC
Method in brief: as §3

E. coli ATCC 25922 = assay: Microdilution MIC assay; conditions: Escherichia coli, ATCC25922; E. coli ATCC 25922, 24 h at 35 °C
Method in brief: as §3

S. gordonii NCTC 7870 = assay: Microdilution MIC assay; conditions: Streptococcus gordonii, NCTC7870; S. gordonii NCTC 7870, 24 h at 35 °C
Method in brief: as §3

E. coli ESBL ATCC 35218 = assay: Microdilution MIC assay; conditions: Escherichia coli, ATCC35218; E. coli ESBL ATCC 35218, 24 h at 35 °C
Method in brief: as §3

[5] = tested on: E. faecalis VRE ATCC 19433; assay: Microdilution MIC assay; conditions: Enterococcus faecalis; E. faecalis VRE ATCC 19433, 24 h at 35 °C
Method in brief: as §3

[6] = tested on: A. actinomycetemcomitans ATCC 33384; assay: Microdilution MIC assay; conditions: Aggregatibacter actinomycetemcomitans, ATCC33384; A. actinomycetemcomitans ATCC 33384, 24 h at 35 °C
Method in brief: as §3

S. mutans ATCC 35668 = assay: Microdilution MIC assay; conditions: S. mutans ATCC 35668, 24 h at 35 °C
Method in brief: as §3

[7] = tested on: P. aeruginosa AGME ATCC 27853; assay: Microdilution MIC assay; conditions: Pseudomonas aeruginosa, ATCC27853; P. aeruginosa AGME ATCC 27853, 24 h at 35 °C
Method in brief: as §3

[8] = Enterococcus faecalis, ATCC29212, 24 h, read-out: MIC
[9] = Streptococcus mutans, ATCC35668, 24 h, read-out: MIC

GI50 (C6 (Rat brain glioma))	IC50 (C6 (Rat brain glioma))	GI50 (Hep3B)	IC50 (Hep3B)	Structure (SMILES)	LC50 (concentration giving 50% net cell loss relative to time zero) (C6 (Rat brain glioma))	IC (total growth inhibition) (C6 (Rat brain glioma))	IC (total growth inhibition) (Hep3B)	LC50 (concentration causing 50% net cell loss relative to time zero) (Hep3B)	LC50 (concentration causing 50% net cell loss) (in vitro)	GI50 (normal FL cells)	IC50 (normal FL cells)	IC (total growth inhibition) (normal FL cells)	cytotoxicity at 24 h, 25 μg/mL [1]	cytotoxicity at 24 h, 50 μg/mL [1]	cytotoxicity at 24 h, 75 μg/mL [1]	cytotoxicity at 24 h, 100 μg/mL [1]	cytotoxicity at 24 h, 25 μg/mL [2]	cytotoxicity at 24 h, 50 μg/mL [2]	cytotoxicity at 24 h, 75 μg/mL [2]	cytotoxicity at 24 h, 100 μg/mL [2]	other results
8.15 µg/mL (≈ 19.2 µM)	29.3 µg/mL (≈ 69 µM)	4.26 µg/mL (≈ 10 µM)	183 µg/mL (≈ 430 µM)	Cc1ccc(-c2cc(-c3ccccn3)nc(N[C@@H]3O[C@H](CO)[C@@H](O)[C@H](O)[C@H]3O)n2)cc1 [Compound 7, N-[4-(4-methylphenyl)-6-pyridin-2-ylpyrimidin-2-yl]-β-D-glucopyranosylamine]	88.3 µg/mL (≈ 208 µM)	21.5 µg/mL	194 µg/mL	> 500 µg/mL	> 500 µg/mL	6.1 µg/mL (≈ 14.4 µM)	255 µg/mL (≈ 600 µM)	266 µg/mL	11.9%	25.1%	38.4%	50.7%	26%	40.7%	75.9%	91.8%	MIC [3]: 250 µg/mL (≈ 589 µM); MIC [4]: 250 µg/mL (≈ 589 µM); MIC (E. faecalis ATCC 29212; [8]): 250 µg/mL (≈ 589 µM); MIC (S. aureus ATCC 25923): 250 µg/mL (≈ 589 µM); MIC (E. coli ATCC 25922): > 1000 µg/mL; MIC (S. gordonii NCTC 7870): 500 µg/mL (≈ 1180 µM); MIC (E. coli ESBL ATCC 35218): > 1000 µg/mL; MIC [5]: 1000 µg/mL (≈ 2360 µM); MIC [6]: 250 µg/mL (≈ 589 µM); MIC (S. mutans ATCC 35668): 125 µg/mL (≈ 294 µM); MIC (S. mutans ATCC 35668; [9]): 62.5 to 125 µg/mL (≈ 147 to 294 µM); MIC [7]: > 1000 µg/mL
2.21 µg/mL (≈ 3.73 µM)	11.2 µg/mL (≈ 19 µM)	5.55 µg/mL (≈ 9.37 µM)	> 500 µg/mL	CC(=O)OC[C@H]1O[C@@H](Nc2nc(-c3ccncc3)cc(-c3cccc(C)c3)n2)[C@H](OC(C)=O)[C@@H](OC(C)=O)[C@@H]1OC(C)=O [Compound 15, 2,3,4,6-tetra-O-acetyl-N-[4-(3-methylphenyl)-6-pyridin-4-ylpyrimidin-2-yl]-β-D-glucopyranosylamine]	71.2 µg/mL (≈ 120 µM)	6.3 µg/mL	> 500 µg/mL	> 500 µg/mL	> 500 µg/mL	26.7 µg/mL (≈ 45 µM)	> 500 µg/mL	> 500 µg/mL	18.4%	31.7%	37.1%	56%	23.8%	45%	62.6%	78.6%	MIC [3]: 250 µg/mL (≈ 422 µM); MIC [4]: 250 µg/mL (≈ 422 µM); MIC (E. faecalis ATCC 29212): 31.25 µg/mL (≈ 52.7 µM); MIC (E. faecalis ATCC 29212; [8]): 31.2 to 125 µg/mL (≈ 52.7 to 211 µM); MIC (S. aureus ATCC 25923): 500 µg/mL (≈ 844 µM); MIC (E. coli ATCC 25922): > 1000 µg/mL; MIC (S. gordonii NCTC 7870): > 1000 µg/mL; MIC (E. coli ESBL ATCC 35218): > 1000 µg/mL; MIC [5]: 1000 µg/mL (≈ 1690 µM); MIC [6]: > 1000 µg/mL; MIC (S. mutans ATCC 35668): 62.5 µg/mL (≈ 105 µM); MIC (S. mutans ATCC 35668; [9]): 62.5 to 125 µg/mL (≈ 105 to 211 µM); MIC [7]: > 1000 µg/mL
